One data set deals with L1210 leukemia cells. The data set can be described thus: In vitro antitumor activity to L1210 leukemia cells (MTT). The format is cell-based. The conditions noted are these: for IC50: Mus musculus. On the procedure:
The cells were cultured in an incubator at 37° C., 5% CO2 and saturated humidity for 48 h. Then 5 mg/mL MTT (20 μL/well) was added and cultured at the same conditions for 4 h, DMSO (150 μL/well) was added, and the (570/630 nm) absorbance (A values) was measured by using micro-plate reader.

The next data set relates to L1210 cells. The format is cell-based. The conditions noted are these: 10 μM, after 12 h. The protocol:
The cells were cultured in an incubator at 37° C., 5% CO2 and saturated humidity. The culture medium was removed, the cells were washed with PBS twice, fixed at −20° C. overnight. Then the cells were centrifuged again, washed with PBS to remove ethanol, cultured with RNase A (200 μg/mL, Sigma) at 37° C. for 1 h, stained with PI (50 μg/mL, Sigma) in dark for 30 min, and detected by using a flow cytometer.

The next data set has as its system Bacillus subtilis. The data set can be described thus: Inhibition zone test (holing method). The conditions noted are these: 37° C., 24 h; compounds 0.05 mg/well, streptomycin 0.15 mg/well. The format is cell-based. On the procedure: (§1) After being cultured at 37° C. for 24 h, the sizes of inhibition zones were measured.
In the next data set the test system is Candida albicans. The data set can be described thus: Inhibition zone test (holing method). In kind it is cell-based. The settings on record: 37° C., 24 h; compounds 0.05 mg/well, nysfungin 0.10 mg/well. The protocol: as §1
The subject of another data set is E. coli. The data set can be described thus: Inhibition zone test (holing method). The format is cell-based. The conditions noted are these: 37° C., 24 h; compounds 0.05 mg/well, gentamicin 0.10 mg/well. The protocol: as §1
The subject of data set [1] is Pseudomonas aeruginosa. The data set can be described thus: Inhibition zone test (holing method). The format is cell-based. The settings on record: 37° C., 24 h; compounds 0.05 mg/well, gentamicin 0.10 mg/well. The protocol: as §1
In data set [2] the test system is Staphylococcus aureus MRSA 5676. The data set can be described thus: Inhibition zone test (holing method). In kind it is cell-based. The settings on record: 37° C., 24 h; compounds 0.05 mg/well, vancomycin 0.15 mg/well. The protocol:
as §1

Data set [3] has as its system Staphylococcus aureus MRSA 5677. The data set can be described thus: Inhibition zone test (holing method). The format is cell-based. The conditions noted are these: 37° C., 24 h; compounds 0.05 mg/well, vancomycin 0.15 mg/well. On the procedure: as §1
The test system of data set [4] is Staphylococcus aureus wild type. The data set can be described thus: Inhibition zone test (holing method). In kind it is cell-based. The conditions noted are these: 37° C., 24 h; compounds 0.05 mg/well, streptomycin 0.15 mg/well. On the procedure:
as §1

Data set [5] has the same test system. The data set can be described thus: Test of minimal inhibitory concentration (MIC). The format is cell-based. The conditions noted are these: two-fold dilution, 37° C., 24 h, absorbance 595 nm.
In the next data set the test system is MRSA5676. The data set can be described thus: Test of minimal inhibitory concentration (MIC). In kind it is cell-based, Staphylococcus aureus. The conditions noted are these: two-fold dilution, 37° C., 24 h, absorbance 595 nm.
A further data set concerns MRSA5677. The data set can be described thus: Test of minimal inhibitory concentration (MIC). The format is cell-based, Staphylococcus aureus. The settings on record: two-fold dilution, 37° C., 24 h, absorbance 595 nm.
Data set [6] relates to Pseudomonas aeruginosa. The data set can be described thus: Measurement of growth curve of Pseudomonas aeruginosa. In kind it is cell-based. The settings on record: 1 mM (FIG. 2). On the procedure: Pseudomonas aeruginosa was inoculated in LB medium, and cultured at a constant temperature of 37° C. in a shaker overnight.
For data set [7], the system named is secretion of pyocyanin by Pseudomonas aeruginosa. The data set can be described thus: Measurement of pyocyanin. The conditions noted are these: 18 h culture, A520; Andro, AL-1 1 mM; Chuanhuning, Yanhuning, Lianbizhi 10 mM (FIG. 3). In kind it is cell-based. The protocol: Pseudomonas aeruginosa was inoculated in LB medium, then cultured at a constant temperature of 37° C. in a shaker overnight. […] The supernatant was taken and extracted in turn with chloroform and 0.2 N HCl, and A520 values were measured (Zielinshi et al., Biol. Chem. 1991, 266, 9754-9763; May et al., Clin. Microbiology Rev. 1991, 4, 191-206).

In data set [8] the test system is extracellular protease of Pseudomonas aeruginosa. The data set can be described thus: Measurement of extracellular protease. The conditions noted are these: azo-casein, A440; Andro, AL-1 1 mM; Chuanhuning, Yanhuning, Lianbizhi 10 mM (FIG. 4). In kind it is cell-based. The protocol:
Pseudomonas aeruginosa was inoculated in LB liquid, and cultured at a constant temperature of 37° C. in a shaker overnight. […] After the bacterial liquids were cultured simultaneously at 37° C. for 6 h and centrifuged, supernatant 100 μL was taken, azo-casein 5 mg was added, […] and CaCl2 10 mM were added, and then they were shaken for reaction at 37° C. for 6 h, and the reaction was terminated by adding EDTA-Na. The A440 values of the supernatants were measured (Zielinshi et al., Biol. Chem. 1991, 266, 9754-9763; May et al., Clin. Microbiology Rev. 1991, 4, 191-206).

In data set [9] the test system is Pseudomonas aeruginosa. The data set can be described thus: Atomic force microscope (AFM) experiment. In kind it is cell-based. The conditions noted are these: 1 mM, 15 h contact (FIG. 5). The protocol: Pseudomonas aeruginosa was inoculated in LB liquid, shaken and cultured at a constant temperature of 37° C. overnight, and the bacterial liquid was centrifuged, washed with sterile physiological saline twice, and mixed with physiological saline to form a bacterial suspension having a turbidity of 0.5 McFarland Standard (bacterial number was about 5×10^8-9 CFU/mL). The bacterial suspension was diluted with physiological saline 50-times. […] After contacting with medicines for 15 h, 1 mL culture solution was added in a sterile centrifuge tube and centrifuged at 10,000×g for 5 min. The supernatant liquid was discarded, and the obtained bacterial sample was washed with double distilled water twice, and suspended in double distilled water. A small volume of Pseudomonas aeruginosa suspension was taken and dropped on a cover slip carefully. After water was dried under atmospheric condition, the bacteria were observed by CP-Research type atom force microscope (U.S.A., Thermomicroscopes Co.) ([…] et al., Antimicro. Chemother. 1994, 34, 679-685; […] et al., Antimicro. Agents Chemother. 2000, 44, 682-687; Nickel et al., Urology 1986, 135, 586-588).

Data set [10] concerns BF of Pseudomonas aeruginosa. The data set can be described thus: Scanning electron microscopy (SEM) experiment, biofilm (BF) formation. In kind it is cell-based. The settings on record: 1 mM; early BF 3rd day, mature BF 7th day (FIG. 6, 7).
Experimental: Pseudomonas aeruginosa was inoculated in LB liquid, and cultured at a constant temperature of 37° C. in a shaker overnight, and the bacterial liquid was centrifuged, washed with sterile physiological saline twice, and mixed with physiological saline to form a bacterial suspension having a turbidity of 0.5 McFarland Standard (bacterial number was about 5×10^8-9 CFU/mL). The bacterial suspension was diluted with physiological saline 50-times. A biofilm (BF) carrier was placed in a tube containing 2 mL of the bacterial liquid, and the culturing was conducted at 37° C. […] Medium was replaced every other two days. The formation of BF was observed by using Quanta 400 thermal field emission scanning electron microscope (FEI Company). The carrier adhered with BF was washed with sterile physiological saline to remove floating bacteria, fixed with 2.5% glutaral, immersed in pH 7.4 PBS for three times, dewatered in turn with 50%, 70%, 80% and 90% ethanol once, then dewatered with 100% ethanol twice and with tert-butanol twice, 5 min for each time, and lyophilized for 5 h. The surface of carrier was plated with gold under vacuum.
Data set [11] deals with suspended Pseudomonas aeruginosa. The data set can be described thus: Experiment of combination with antibiotics. In kind it is cell-based. The conditions noted are these: Pseudomonas aeruginosa cultured 15 h, OD600; ciprofloxacin 0.017 μg/mL, erythromycin 3.75 μg/mL, Andro 350 μg/mL, AL-1 538 μg/mL (1 μmol/mL).
The subject of data set [12] is rats with STZ-induced diabetes mellitus. The data set can be described thus: Therapeutical effects on STZ-induced diabetes mellitus in rats.
Experimental: 30 Female SD rats, 180-220 g, fasted for 16 h, were subjected to intraperitoneal injection of 60 mg/kg of STZ (purchased from Sigma Company). After 72 h, blood samples were collected from the rats by cutting their tails after fasting 16 h, and blood glucose values were measured by using a blood glucose analyzer (Johnson & Johnson Company). […] Animals were weighed, orbital bleeded, and the sera were separated. According to the instructions of kit (Zhejiang Dongou Biotechnology Co., Ltd.), the contents of triglyceride and total cholesterol were measured. […] The rats of vehicle group were treated with an equivalent volume of solvent (20% DMSO in H2O). After being fasted for 16 h, the rats were weighed, and bleeded for the measurement of blood glucose, triglyceride and total cholesterol. The obtained data were processed by using one-factor analysis of variance (One-way ANOVA) followed by Student's t-test.
The test system of another data set is macrophages. The settings on record: read-out: IC50, inhibition of cell division (C5α induced, macrophages); cited from earlier work.
A further data set has as its system MCF-7 breast cancer. The conditions noted are these: 100 mg/kg, mice, hollow fiber system; cited from earlier work.
The subject of the next data set is B16F0 melanoma. The settings on record: orally 200 mg/kg, twice per day; cited from earlier work.
In the next data set the test system is HT-29 human colon cancer. The conditions noted are these: orally 200 mg/kg, twice per day; cited from earlier work.

Where two headings read alike, the source gives them in different places.

Broadly, the IC50 is the concentration at which inhibition is half-maximal. As to `C=C1CCC2[C@](C)(CO)[C@H](O)CC[C@@]2(C)[C@@H]1C/C=C1/C(=O)OCC1OC(=O)CCCCC1CCSS1` (stereo partly drawn) [AL-1, 14-lipoyl-3,19-dihydroxy-andrographolide], the “cytotoxicity relative to andrographolide” value in the data set with L1210 leukemia cells (L1210 cells) was 3 times. For the same molecule, the IC50 in the data set with L1210 leukemia cells (L1210 cells, 48 h, MTT, read-out: IC50) is 8.04 ± 1.92 µM. In the data set on L1210 cells, the “effect on cell cycle / apoptosis of L1210 cells” value is “arrest L1210 cells at G1 prophase”. Further, in the data set with Bacillus subtilis, the “Inhibition zone diameter, Bacillus Subtilis” value was “^b (incompetence (inhibition zone diameter <4 mm))”. Besides, the “Inhibition zone diameter, Candida albicans” value with Candida albicans is “^b (incompetence (inhibition zone diameter <4 mm))”. Further, the “Inhibition zone diameter, E. coli” value with E. coli is on record as “^b (incompetence (inhibition zone diameter <4 mm))”. In addition, in the data set on Pseudomonas aeruginosa [1], the “Inhibition zone diameter, Pseudomonas aeruginosa” value is reported as “^b (incompetence (inhibition zone diameter <4 mm))”. In addition, the “Inhibition zone diameter, Staphylococcus aureus MRSA 5676” value in data set [2] came out at 6.9 ± 0.80 mm. In data set [3], the “Inhibition zone diameter, Staphylococcus aureus MRSA 5677” value stood at 4.1 ± 0.77 mm. For the same molecule, the “Inhibition zone diameter, Staphylococcus aureus Wild type” value in data set [4] is recorded as 4.9 ± 0.81 mm. Besides, in data set [5], the “MIC, Wild type” value is 1000. In addition, the “MIC, MRSA5676” value against MRSA5676 is recorded as 1000. Besides, the “MIC, MRSA5677” value against MRSA5677 amounted to 1000. In addition, the “inhibition of the growth of Pseudomonas aeruginosa (growth curve, A600)” value in the data set with Pseudomonas aeruginosa [6] is on record as “significantly inhibited the growth of bacteria”. In data set [7], the “inhibition of the secretion of pyocyanin” value was “AL-1>Andro>ANO”. Also, the “inhibition of the production/activity of extracellular protease” value in [8] is on record as “AL-1>ANO>Andro”. Moreover, the “growth morphology of Pseudomonas aeruginosa under AFM” value with Pseudomonas aeruginosa [9] is given as “did not form a confertim bacterial colony”. In addition, the “formation of early and mature BF of Pseudomonas aeruginosa under SEM” value in data set [10] is given as “able to destroy the BF of Pseudomonas aeruginosa”. In data set [11], the “Survival Rate” value came to 84%. Also, the “reduction of blood glucose level” value in data set [12] (AL-1 160 mg/kg, 7 days) is given as “about 66%”. In data set [12] (Day 0, before treatment), this molecule showed a Blood glucose of 19.53 ± 1.90 mmol/L, a Body weight of 214.33 ± 9.81 g, a Total cholesterol of 3.39 ± 0.59 mmol/L and a Total triglyceride of 6.28 ± 0.78 mmol/L.

Regarding `C=C1CCC2[C@@](C)(CC[C@@H](O)[C@@]2(C)CO)C1C/C=C1/C(=O)OCC1O` (stereo partly drawn) [Andro, Andrographolide], the concentration for half-maximal inhibition (IC50) is 28.7 ± 6.19 µM in the data set on L1210 leukemia cells (L1210, 48 h) and 5.6 ± 0.7 µM in the data set with macrophages. For the same molecule, the “Inhibition zone diameter, Bacillus Subtilis” value in the data set on Bacillus subtilis was “^b (incompetence (inhibition zone diameter <4 mm))”. The “Inhibition zone diameter, Candida albicans” value in the data set on Candida albicans was “^b (incompetence (inhibition zone diameter <4 mm))”. Further, the “Inhibition zone diameter, E. coli” value in the data set on E. coli is reported as “^b (incompetence (inhibition zone diameter <4 mm))”. Moreover, the “Inhibition zone diameter, Pseudomonas aeruginosa” value in the data set with Pseudomonas aeruginosa [1] is “^b (incompetence (inhibition zone diameter <4 mm))”. For the same molecule, the “Inhibition zone diameter, Staphylococcus aureus MRSA 5676” value in data set [2] is “^b (incompetence (inhibition zone diameter <4 mm))”. For the same molecule, the “Inhibition zone diameter, Staphylococcus aureus MRSA 5677” value in data set [3] is recorded as “^b (incompetence (inhibition zone diameter <4 mm))”. Also, in data set [4], the “Inhibition zone diameter, Staphylococcus aureus Wild type” value is given as “^b (incompetence (inhibition zone diameter <4 mm))”. In the data set on Pseudomonas aeruginosa [6], the “inhibition of the growth of Pseudomonas aeruginosa (growth curve, A600)” value is recorded as “weak antibacterial activity”. Also, the “inhibition of the secretion of pyocyanin” value in data set [7] was “AL-1>Andro>ANO”. The “inhibition of the production/activity of extracellular protease” value in data set [8] is given as “AL-1>ANO>Andro”. The inhibition of growth result with MCF-7 breast cancer was “about 50%”. In addition, the “inhibition of growth of melanoma” value in the data set on B16F0 melanoma is 39%. Further, in the data set with HT-29 human colon cancer, the “inhibition of growth of colon cancer” value is 52%.

The values are drawn from patent publication US8367720B2 (Panorama Research Inc., priority 2007, dated 2013).
